Where “and” joins values, the source holds several entries; their conditions need not be identical. Identical values can stand only once.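 Test compounds were applied to cells in 96-well plates for 48 hours at 5 doses. At the GI50, growth is halved. TGI: total growth inhibition.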
Columns and labels:
Assay in all cases: inhibition of tumour cell growth, NCI panel, 48 h
[1] = system: SF-295 CNS
[2] = system: MALME-3M melanoma
[3] = system: HT29 colon
[4] = system: IGROV1 ovarian
[5] = system: HCC-2998 colon
[6] = system: HL-60(TB) leukemia
[7] = system: NCI-H522 lung
[8] = system: SK-MEL-28 melanoma
[9] = system: PC-3 prostate
[10] = system: ACHN renal

Structure (SMILES)	GI50 [1]	GI50 [2]	GI50 [3]	GI50 [4]	TGI [4]	GI50 [5]	TGI [5]	GI50 [6]	TGI [6]	GI50 [7]	TGI [7]	TGI [8]	TGI [1]	TGI [2]	TGI [3]	TGI [9]	TGI [10]	GI50 [10]	GI50 [9]	GI50 [8]
CC1[C@@]2(CCC(C)(C)O2)O[C@@H]2C=C3C4CCC5Cc6nc7c(nc6C[C@@]5(C)C4C[C@H](O)[C@@]3(C)[C@]12O)CC1CCC2C3=C[C@H]4O[C@@]5(O[C@@](C)(CO)C[C@@H]5O)C(C)[C@@]4(O)[C@]3(C)[C@@H](O)CC2[C@]1(C)C7 (stereo partly specified)	< 0.000365 µM	0.0101 µM	0.00179 µM	0.00831 µM	0.59 µM	0.401 µM	0.86 µM	< 0.000365 µM	0.331 µM and 0.0465 µM	0.0132 µM	0.418 µM and 0.0804 µM	0.221 µM	–	–	–	–	–	–	–	–
O=[N+]([O-])c1cccc(/C=N/Nc2ccc3ccccc3n2)c1O	–	–	–	–	> 42.7 µM	–	–	–	3.13 µM	–	7.52 µM	> 65.6 µM	14.2 µM	11.3 µM	20.5 µM	56.7 µM	–	–	–	–
CC(C)(O)C1COC2=C1C(=O)c1ccccc1C2=O (stereo unspecified)	–	–	–	–	> 100 µM	–	> 100 µM	–	44.9 µM	–	> 100 µM	46 µM	> 100 µM	–	> 100 µM	> 100 µM	> 100 µM	–	–	–
O=C(N/C(=C\c1ccc([N+](=O)[O-])cc1)c1nc2ccccc2s1)c1ccccc1	–	–	–	–	> 100 µM	–	> 100 µM	–	–	–	–	> 100 µM	–	> 100 µM	> 100 µM	–	92.1 µM	–	–	–
O=P(CN1CCOCC1)(c1ccccc1)c1ccccc1	–	–	–	–	> 100 µM	–	–	–	> 100 µM	–	> 100 µM	> 100 µM	> 100 µM	> 100 µM	> 100 µM	–	> 100 µM	–	–	–
CCCN1C(=O)/C(=C/c2ccc(SC(F)(F)F)cc2)SC1=Nc1ccc(OC)cc1	9.32 µM	–	17.6 µM	29.6 µM	> 50 µM	–	–	> 50 µM	> 50 µM	–	–	> 50 µM	38.1 µM	–	> 50 µM	> 50 µM	11.8 µM	5.53 µM	15.6 µM	28.4 µM
CCCC1C[C@H]2CCCCN2[C@H]2CCCN12 (stereo partly specified)	–	–	–	–	> 100 µM	–	> 100 µM	–	> 64 µM	–	> 100 µM	> 100 µM	> 100 µM	> 100 µM	> 100 µM	–	> 100 µM	–	–	–
CC[C@H](C)[C@H](NC(=O)[C@H]1CCCCN1C)C(=O)N(C)[C@H](CCc1nc(C(=O)N[C@@H](Cc2ccccc2)C[C@H](C)C(=O)O)cs1)C(C)C	0.143 µM	–	0.123 µM	0.223 µM	> 25 µM	0.632 µM	> 25 µM	0.0553 µM	0.174 µM	0.0351 µM	0.579 µM	> 25 µM	–	–	> 25 µM	> 25 µM	> 25 µM	1.37 µM	0.367 µM	> 25 µM
O=C1C(Cl)=C(Nc2ccc(S(=O)(=O)c3ccc(NC4=C(Cl)C(=O)c5ccccc5C4=O)cc3)cc2)C(=O)c2ccccc21	3.27 µM	2.13 µM	2 µM	–	–	2.82 µM	6.33 µM	3.24 µM	8.62 µM	–	–	3.28 µM	11.8 µM	3.88 µM	5.02 µM	–	2.69 µM	1.31 µM	–	1.8 µM
O=c1ccc(N=Nc2ccccc2)ccc1O	–	–	–	–	34.6 µM	–	–	–	51.2 µM	–	56.3 µM	32.9 µM	20.9 µM	27.9 µM	32.1 µM	28.6 µM	26 µM	–	–	–
